From patent publication US12144823B2, “Porous silicate and/or aluminosilicate matrix/cerium oxide nanoparticle nanocarrier for combination anti-cancer therapeutic and antioxidant delivery” (Imam Abdulrahman Bin Faisal University, priority 2022, dated 2024)
Entries after “also recorded” stand apart in the source; their conditions may differ.

What was measured:
[1] = test system: HFF-1 (Human Foreskin Fibroblasts) cells; test: Cytotoxicity assay by MTT, HFF-1 cells; type: cell-based
Description: (§1) MCF-7 (Human Breast Cancer) and HFF-1 (Human Foreskin Fibroblasts) cell lines were sub-cultured in DMEM (Dullbecco's Modified Eagle Medium) supplemented with 1% of L-Glutamine, 10% of Fetal Bovine Serum as FBS (Gibco), 1% of Non-Essential Amino Acid (Gibco), and 1% of penicillin and streptomycin. The cells were cultured in a humidified CO2 incubator at 37° C. (Thermoscientific, Waltham, MA). The cells were seeded for in a 96 well plate (Thermo Fisher, Waltham, USA) with 10,000 cells per well. […] The cells were tested after 24, 48 and 72 hours using (Thiazolyl Blue Tetrazolium Bromide, MOLEQULE-ON) MTT assay.
(§2) Cultured media along with NPs were removed from 96 well plates and the cells were washed with 1×PBS.
(§3) The statistical analysis was done for determining the MTT cytotoxicity assay, using an unpaired two-way ANOVA (GraphPad Prism software), P-value is set at <0.05 (* if P≤0.05, ** if P≤0.01, *** if P≤0.001, **** if P≤0.0001) were considered statistically significant. The results were calculated from different three experiments.

MCF-7 cells = test: Imaging of treated cells by light microscopy, MCF-7; type: cell-based, Human; details: 200 or 400 μg/mL, 48 h, light microscope
Description: (§4) The cells were observed under the light microscope after each time point to evaluate the morphological changes and study the NPs effect on cell proliferation without fixation. The images were taken by light microscope (TS100F Eclipse, Nikon, Tokyo, Japan) that can work with a digital camera and combined with its Nikon microscope program.
(§5) The effect of nanocomposites on cell morphology was imaged by using a light microscope after each time point. MCF-7 cells and HFF-1 cells were treated with either 200 or 400 μg/mL for 48 h to evaluate the average morphological changes. […] In the microscopy images, the magnification was ×100 and the scale bar represents 100 μm.

HFF-1 cells = test: Imaging of treated cells by light microscopy, HFF-1; type: cell-based, Human; details: 200 or 400 μg/mL, 48 h, light microscope
Description: as §4, §5

[2] = test system: MCF-7 (Human Breast Cancer) cells; test: Cytotoxicity assay by MTT, MCF-7 cells; type: cell-based
Description: as §1, §2, §3
The cytotoxicity study was performed to evaluate the toxicity of CeO2 nanoparticles against breast cancer cell line (MCF-7) and a non-cancerous cell line of human foreskin fibroblast (HFF-1). Different concentrations were applied (see Table 1) for 24, 48 and 72 hours, then, cytotoxicity was measured by MTT assay after each period of treatment. The data were plotted in scattered graphs using excel to calculate the EC50 values from the exponential trendline generated equation. The statistical significance with the p value and standard deviation were analyzed by two-way ANOVA test in GraphPad, Prism software. […] In addition, EC50 values were calculated to estimate the half maximal cytotoxic effect after each time point.

SMILES	EC50 Value of treated HFF-1 cells, 24 h ([1]; HFF-1, MTT, 24 h treatment) [µg/mL]	EC50 Value of treated HFF-1 cells, 48 h ([1]; HFF-1, MTT, 48 h treatment) [µg/mL]	EC50 Value of treated HFF-1 cells, 72 h ([1]; HFF-1, MTT, 72 h treatment) [µg/mL]	effect on cell morphology and proliferation, MCF-7 (MCF-7 cells)	effect on cell morphology and proliferation, HFF-1 (HFF-1 cells)	EC50 Value of treated MCF-7 cells, 24 h ([2]; MCF-7, MTT, 24 h treatment) [µg/mL]	EC50 Value of treated MCF-7 cells, 48 h ([2]; MCF-7, MTT, 48 h treatment) [µg/mL]	EC50 Value of treated MCF-7 cells, 72 h ([2]; MCF-7, MTT, 72 h treatment) [µg/mL]	cytotoxic efficacy against HFF-1 cells (in words) ([1]; MTT, 24-72 h)	cytotoxic efficacy against MCF-7 cells (in words) ([2]; MTT, 24-72 h)
N.N.[Cl][Pt][Cl] [cisplatin]	52.3	12.62	6.58	cell death morphological structures	cell death morphological structures	21.58	8.03	3.12	–	–
COc1cc(/C=C/C(=O)CC(=O)/C=C/c2ccc(O)c(OC)c2)ccc1O [curcumin]	–	–	–	slightly affected	slightly affected	–	–	–	less efficacy	lowest efficacy with high cell viability percentages; also recorded: rapidly enhanced the cell growth
